For this assay, the target named is T1, ZIKV NS2B/NS3 protease (Zika virus, UniProt Q32ZE1).
T1 construct: cut from ZIKV genome polyprotein
The experiment in a line: fluorogenic protease assay, AMC release. Type of assay: biochemical.

pIC50: −log10 of the molar value.

The pIC50 is the negative decadic logarithm of the IC50, by convention in mol/L. A high value points to a small IC50.

T1 sequence (Q32ZE1 1499-1668): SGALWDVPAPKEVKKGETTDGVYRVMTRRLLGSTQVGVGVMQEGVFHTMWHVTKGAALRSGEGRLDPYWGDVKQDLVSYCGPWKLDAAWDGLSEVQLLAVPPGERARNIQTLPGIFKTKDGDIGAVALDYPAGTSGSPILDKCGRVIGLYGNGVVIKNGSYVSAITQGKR
T1 sequence (Q32ZE1 1417-1463): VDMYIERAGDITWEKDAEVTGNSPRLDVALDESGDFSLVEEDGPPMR

`C=C[C@@H]1C[C@]1(NC(=O)[C@@H]1C[C@@H](Oc2ncc(OC)c3ccc(Cl)cc23)CN1C(=O)[C@@H](NC(=O)OC(C)(C)C)C(C)(C)C)C(=O)NS(=O)(=O)C1CC1` [Asunaprevir] showed a pIC50 of 5.22. Then `COc1ccc2c(O[C@@H]3C[C@H]4C(=O)N[C@]5(C(=O)NS(=O)(=O)C6CC6)C[C@H]5/C=C\CCCCN(C)C(=O)[C@@H]4C3)cc(-c3nc(C(C)C)cs3)nc2c1C` [Simeprevir], with 5.59.

The record behind these values is PMC7265434, “Zika Virus NS3 Protease Pharmacophore Anchor Model and Drug Discovery” (Scientific Reports, 2020).
